In ChEMBL document CHEMBL1134215, “Influence of chain length and N-alkylation on the selective serotonin receptor ligand 9-(aminomethyl)-9,10-dihydroanthracene” (Bioorg Med Chem Lett, 2001):

Key:
Assay type in all cases: cell-based
[1] = target: 5-hydroxytryptamine receptor 2A (Homo sapiens, UniProt P28223); experiment: Displacement of [3H]ketanserin from 5-hydroxytryptamine 2A receptor expressed NIH3T3 cells
D(2) dopamine receptor = D(2) dopamine receptor (Mus musculus, UniProt P61168); experiment: Binding affinity to Dopamine receptor D2 using [3H]spiperone as radioligand in stably transfected NIH3T3 cells
D(2) dopamine receptor, sequence (P61168 whole entry): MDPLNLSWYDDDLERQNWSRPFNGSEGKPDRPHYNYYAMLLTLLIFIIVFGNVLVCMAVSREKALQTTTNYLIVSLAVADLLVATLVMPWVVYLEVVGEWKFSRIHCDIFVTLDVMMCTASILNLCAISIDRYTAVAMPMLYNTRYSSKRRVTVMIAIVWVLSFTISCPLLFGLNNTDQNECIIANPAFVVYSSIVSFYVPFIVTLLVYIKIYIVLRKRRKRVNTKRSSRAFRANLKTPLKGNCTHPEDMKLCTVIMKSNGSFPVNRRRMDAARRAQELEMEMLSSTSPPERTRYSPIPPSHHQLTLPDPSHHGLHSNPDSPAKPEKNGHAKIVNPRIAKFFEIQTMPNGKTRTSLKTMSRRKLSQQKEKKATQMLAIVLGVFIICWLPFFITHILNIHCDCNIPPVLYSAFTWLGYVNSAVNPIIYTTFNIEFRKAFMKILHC

[2] = target: T1, 5-hydroxytryptamine receptor 2C (Mus musculus, UniProt P34968); experiment: Binding affinity to 5-hydroxytryptamine 2C receptor using [3H]Mesulergine as radioligand in stably transfected NIH3T3 cells
T1 sequence (P34968 whole entry): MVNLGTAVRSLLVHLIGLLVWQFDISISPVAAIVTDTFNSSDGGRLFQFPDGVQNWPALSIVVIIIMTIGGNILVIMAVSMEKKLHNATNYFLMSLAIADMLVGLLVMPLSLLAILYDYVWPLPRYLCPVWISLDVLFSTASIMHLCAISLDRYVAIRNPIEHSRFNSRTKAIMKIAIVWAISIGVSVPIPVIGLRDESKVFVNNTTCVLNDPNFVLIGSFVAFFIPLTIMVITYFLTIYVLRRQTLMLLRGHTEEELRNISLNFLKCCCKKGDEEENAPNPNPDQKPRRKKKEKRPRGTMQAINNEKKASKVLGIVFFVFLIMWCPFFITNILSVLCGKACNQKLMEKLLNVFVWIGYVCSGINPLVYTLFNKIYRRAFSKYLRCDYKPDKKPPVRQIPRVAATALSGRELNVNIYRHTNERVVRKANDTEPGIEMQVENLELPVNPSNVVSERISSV

[3] = target: Sodium-dependent serotonin transporter (Mus musculus, UniProt Q60857); experiment: Binding affinity to Serotonin transporter using [3H]-paroxetine as radioligand in stably transfected NIH3T3 cells
Sodium-dependent serotonin transporter, sequence (Q60857 whole entry): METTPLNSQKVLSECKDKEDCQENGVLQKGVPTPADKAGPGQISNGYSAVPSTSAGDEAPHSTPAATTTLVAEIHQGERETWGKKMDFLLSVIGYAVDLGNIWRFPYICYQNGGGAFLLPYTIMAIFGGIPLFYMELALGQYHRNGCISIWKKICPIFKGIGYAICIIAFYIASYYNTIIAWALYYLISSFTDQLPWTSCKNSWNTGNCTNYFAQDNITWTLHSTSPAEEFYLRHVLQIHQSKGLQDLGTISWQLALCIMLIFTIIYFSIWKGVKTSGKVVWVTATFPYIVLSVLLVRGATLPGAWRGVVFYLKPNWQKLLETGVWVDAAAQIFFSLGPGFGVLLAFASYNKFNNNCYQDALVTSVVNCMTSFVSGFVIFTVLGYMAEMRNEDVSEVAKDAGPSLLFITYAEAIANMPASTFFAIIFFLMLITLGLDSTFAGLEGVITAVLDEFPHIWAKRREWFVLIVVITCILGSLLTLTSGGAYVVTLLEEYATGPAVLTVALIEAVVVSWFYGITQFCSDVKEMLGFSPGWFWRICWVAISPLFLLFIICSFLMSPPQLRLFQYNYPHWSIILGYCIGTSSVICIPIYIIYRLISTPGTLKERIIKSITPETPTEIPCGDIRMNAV

[4] = target: Sodium-dependent noradrenaline transporter (Mus musculus, UniProt O55192); experiment: Binding affinity to Norepinephrine transporter using [3H]-[…] as radioligand in stably transfected NIH3T3 cells
Sodium-dependent noradrenaline transporter, sequence (O55192 whole entry): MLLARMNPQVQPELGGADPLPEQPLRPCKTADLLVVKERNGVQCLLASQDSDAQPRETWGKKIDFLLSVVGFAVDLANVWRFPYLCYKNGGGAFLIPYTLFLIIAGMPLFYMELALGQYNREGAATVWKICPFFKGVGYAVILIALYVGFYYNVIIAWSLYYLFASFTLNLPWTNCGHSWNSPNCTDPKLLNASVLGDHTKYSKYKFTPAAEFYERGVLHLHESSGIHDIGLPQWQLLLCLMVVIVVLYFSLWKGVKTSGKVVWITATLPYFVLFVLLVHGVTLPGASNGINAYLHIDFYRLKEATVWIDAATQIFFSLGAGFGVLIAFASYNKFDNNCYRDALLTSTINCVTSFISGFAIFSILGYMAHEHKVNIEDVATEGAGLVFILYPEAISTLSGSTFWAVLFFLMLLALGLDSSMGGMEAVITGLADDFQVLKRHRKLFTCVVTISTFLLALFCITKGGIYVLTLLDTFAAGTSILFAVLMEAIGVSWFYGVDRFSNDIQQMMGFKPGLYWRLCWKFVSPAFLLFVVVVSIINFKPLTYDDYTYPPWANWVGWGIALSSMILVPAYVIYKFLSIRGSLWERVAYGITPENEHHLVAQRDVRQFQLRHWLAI

[5] = target: T1, 5-hydroxytryptamine receptor 2C; experiment: Binding affinity to 5-hydroxytryptamine 2C receptor measured using radioligand [3H]Mesulergine in stably transfected NIH3T3 cells

5-hydroxytryptamine receptor 2A, sequence (P28223 whole entry): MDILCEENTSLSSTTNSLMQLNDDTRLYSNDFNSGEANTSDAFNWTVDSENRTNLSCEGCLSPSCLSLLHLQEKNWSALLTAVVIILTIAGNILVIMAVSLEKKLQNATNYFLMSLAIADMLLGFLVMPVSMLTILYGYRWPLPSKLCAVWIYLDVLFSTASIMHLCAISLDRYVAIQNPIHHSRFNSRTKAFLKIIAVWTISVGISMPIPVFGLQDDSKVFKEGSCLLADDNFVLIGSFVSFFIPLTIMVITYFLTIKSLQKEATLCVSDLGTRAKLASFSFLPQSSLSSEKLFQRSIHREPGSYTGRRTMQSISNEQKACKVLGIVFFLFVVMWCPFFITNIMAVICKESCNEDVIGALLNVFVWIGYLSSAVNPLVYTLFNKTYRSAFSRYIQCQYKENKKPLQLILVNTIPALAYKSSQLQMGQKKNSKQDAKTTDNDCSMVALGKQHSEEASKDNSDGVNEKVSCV

Ki [1] [nM]	Structure (SMILES)	further results
397	NCCCN1c2ccccc2CCc2ccccc21	–
–	CN(C)CCCN1c2ccccc2CCc2ccccc21 [IMIPRAMINE]	Ki (D(2) dopamine receptor): 726 nM
540	CN(C)CC1c2ccccc2Cc2ccccc21	–
4000	C[N+](C)(C)CC1c2ccccc2Cc2ccccc21	–
–	CN1CCC(=C2c3ccccc3C=Cc3ccccc32)CC1 [CYPROHEPTADINE]	Ki (D(2) dopamine receptor): 112 nM; Ki [2]: 11 nM; Ki [3]: 4100 nM; Ki [4]: 290 nM
–	NCC1c2ccccc2Cc2ccccc21	Ki [5]: 43 nM; Ki (D(2) dopamine receptor): > 10000 nM; Ki [3]: > 10000 nM; Ki [4]: > 10000 nM
721	c1ccc(CNCC2c3ccccc3Cc3ccccc32)cc1	–
480	NCCC1c2ccccc2Cc2ccccc21	–
12000	NC1c2ccccc2Cc2ccccc21	–

Structure (SMILES)	Ki [1] [nM]	further results
NCCCC1c2ccccc2Cc2ccccc21	32	–
CNCCCC1c2ccccc2Cc2ccccc21	13	–
CNCC1c2ccccc2Cc2ccccc21	52	–
CN(C)CCCC1c2ccccc2Cc2ccccc21	22	–
